# US5756327A, “Recombinant mycobacterial isoleucyl-tRNA synthetase genes, tester strains and assays” (priority 1995, dated 1998)
# What was measured:
# E. coli IleRS = conditions: Hughes and Mellows, Biochem. J. 176:305-318 (1978); cited from earlier work
# [1] = tested on: E. coli DH5α cells expressing the M. tuberculosis IleRS gene (on pKS-56); type: cell-based
# [2] = tested on: DH5α cells expressing wild-type IleRS on a plasmid (pKS21); test: Pseudomonic acid (PMA) rescue, growth in liquid culture (A600); type: cell-based, E. coli; conditions: LB plus ampicillin media containing 40 μg/ml PMA; 30° C., 36-40 hours
# [3] = tested on: E. coli cells with the TB GST-IleRS fusion construct, pGX-56; type: cell-based; conditions: as for pKS-56: 40 μg/ml PMA, LB plus ampicillin
compound,measurement,setting,value
"C/C(=C\C(=O)OCCCCCCCCC(=O)O)C[C@@H]1OC[C@H](C[C@@H]2O[C@H]2[C@@H](C)[C@H](C)O)[C@@H](O)[C@H]1O [PMA, pseudomonic acid A]",sensitivity of E. coli IleRS to PMA,E. coli IleRS,extremely sensitive
same,inhibition of growth,"[1]; LB plus ampicillin media containing 40 μg/ml PMA, 30° C., 36-40 hours",no inhibition of growth
same,growth at highest concentration tested,[1]; LB plus ampicillin with 640 μg/ml PMA (higher concentrations were not tested),continued to grow
same,inhibition of growth,[2],completely inhibited
same,inhibition of growth,[3],Identical results
